Results: article PMC4926365, “Expression and Characterization of a Novel Glycerophosphodiester Phosphodiesterase from Pyrococcus furiosus DSM 3638 That Possesses Lysophospholipase D Activity” (International Journal of Molecular Sciences, 2016)

Target: T1, pfGDPD (Pyrococcus furiosus, UniProt Q8TZI9)
T1 construct: gene PF2003; full length 253 aa, no signal peptide; synthetic gene in pET28a, N- and C-terminal His6 tags kept; E. coli SHuffle T7; Ni-NTA; 34,059 Da
T1 sequence (Q8TZI9 1-253): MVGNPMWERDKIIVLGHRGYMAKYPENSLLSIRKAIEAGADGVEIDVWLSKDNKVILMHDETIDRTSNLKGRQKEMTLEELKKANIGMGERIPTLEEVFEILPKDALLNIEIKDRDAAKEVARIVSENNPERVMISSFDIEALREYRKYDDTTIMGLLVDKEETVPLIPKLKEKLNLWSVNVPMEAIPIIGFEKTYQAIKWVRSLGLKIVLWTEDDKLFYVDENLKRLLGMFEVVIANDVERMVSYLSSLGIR
Assay: colorimetric p-nitrophenol release
Type: biochemical
Conditions: Mn2+ (best at 5 mM), 50 mM Tris-HCl pH 8.5, 55 °C

Question: How did the colorimetric p-nitrophenol release turn out when O=[N+]([O-])c1ccc(OP(=O)(O)Oc2ccc([N+](=O)[O-])cc2)cc1 [bis(p-nitrophenyl) phosphate] was run?
Answer: The colorimetric p-nitrophenol release was “The optimal temperature of recombinant pfGDPD was determined using BpNPP as substrate”.
